Patent US6207596A, “Disposable premoistened wipe containing an antimicrobial protease inhibitor” (The Procter & Gamble Company, priority 1998, dated 2001)

What was measured:
Candida albicans = assay: Method 3: antimicrobial activity (NCCLS dilution, MIC), C. albicans; type: cell-based, Candida albicans ATCC 10231; conditions: ATCC10231, ATCC 10231, diluted with distilled water, 24 hours at 37° C., read-out: Minimal Inhibitory Concentration
Protocol: (§1) 3. Method for Determining the Activity of Antimicrobial Agents:
(§2) This method is used to determine the antimicrobial activity of antimicrobial agents. The antimicrobial activity of an antimicrobial agent is tested according to the National Committee for Clinical Laboratory Standards ("NCCLS") Methods. The NCCLS Dilution Antimicrobial Susceptibility Test for Bacteria Which Grow Aerobically is used (i.e.; NCCLS Document M7-A2, 1990).
(§3) Serial two-fold dilutions of the antimicrobial agent are made in trypticase soy broth in a microtiter plate (in the case of hexamidine diisethionate a 1000 μM starting concentration is recommended). Microorganism inocula are prepared by harvesting colonies from agar plates into saline and adjusting the optical density of the solution to be equivalent to the 0.5 McFarland standard. Each microorganism suspension is diluted 1:10 and 10 microliters of the suspension added to each microtiter well.
(§4) The microtiter plates are sealed and incubated for 24 hours at 37° C. The highest dilution of the antimicrobial agent preventing growth is recorded as the minimal inhibitory concentration ("MIC").
(§5) Referring to Table II, the antimicrobial activity of hexamidine diisethionate on three different microorganisms is shown. For purposes of this example, hexamidine diisethionate was diluted with distilled water and evaluated according to Method 3 above. […]

Escherichia coli = assay: Method 3: antimicrobial activity (NCCLS dilution, MIC), E. coli; type: cell-based; conditions: ATCC25922, ATCC 25922, diluted with distilled water, 24 hours at 37° C., read-out: Minimal Inhibitory Concentration
Protocol: as §1, §2, §3, §4, §5

Staphylococcus aureus = assay: Method 3: antimicrobial activity (NCCLS dilution, MIC), S. aureus; type: cell-based, Staphylococcus aureus ATCC 25923; conditions: ATCC25923, ATCC 25923, diluted with distilled water, 24 hours at 37° C., read-out: Minimal Inhibitory Concentration
Protocol: as §1, §2, §3, §4, §5

fecal trypsin = assay: Method 2a: Efficacy of Protease Inhibitors in Fecal Trypsin; type: biochemical; conditions: pooled infant fecal suspension; 25° C., 405 nm corrected by 490 nm
Protocol: (§6) Standard in vitro assays for determining enzyme activity, and inhibition of enzyme activity, are well known. The reagents used to conduct these tests are generally commercially available. In general, a simple system comprises an enzyme-specific substrate which, when hydrolyzed by the enzyme, produces a colored product. The activity of the enzyme is measured spectrophotometrically as the degree of development of the colored product (i.e.; the rate of color change) over a predetermined time period.
(§7) The inhibitory activity of an enzyme inhibitor may be calculated according to the following equation: […]
(§8) In the methods, v and vi are measured as the change in absorbency (optical density, OD) at a given wavelength/time (e.g., minutes). […]
Serial dilutions of a protease inhibitor are made using distilled water. A 0.7 ml aliquot of each dilution of protease inhibitor to be evaluated is added to a microcuvette. […]
A volume of 0.1 mL of fecal suspension is added to the microcuvette and mixed. The absorbency of the mixture at 490 nm is measured with the spectrophotometer. […] The absorbency of the mixture at 405 nm is then measured with the spectrophotometer over a period of 5 minutes at 25° C. These […] in order to correct for any background interference. […]

[1] = test system: purified trypsin (human pancreatic trypsin); assay: Method 1a: Efficacy of Protease Inhibitors in Purified Trypsin; type: biochemical; conditions: 25° C., 405 nm; inhibitor diluted in distilled water
Protocol: as §6, §7, §8
Serial dilutions of a protease inhibitor are made using distilled water. A 50 μl aliquot of each serial dilution of protease inhibitor to be evaluated is added to a microcuvette containing 0.020 ml of trypsin buffer and 0.105 ml of purified trypsin. […]
After incubating, 0.025 ml of the 4 mM N-carbobenzyloxy-arginine-p-nitroanilide substrate solution is added to the microcuvette. […] The absorbency of the mixture is then measured at a wavelength of 405 nm over a period of 10 minutes at a temperature of 25° C. […]

N=C(N)c1ccc(OCCCCCCOc2ccc(C(=N)N)cc2)cc1 [hexamidine diisethionate]
MIC (Candida albicans): 13 µM
MIC (Escherichia coli): 53 µM
MIC (Staphylococcus aureus): 3 µM
IC50 (fecal trypsin): 2.3 µM
IC50 [1]: 2.5 µM
